# “And” between values parts separate entries of the source, which are not always exact repeats. Equal values may be shown once. “Also recorded” adds a separate entry of the source.
# Tests used:
# Caco-2 cells = test: Caco-2 cell transport bioassay (Caco-2/HepG2 co-culture, 2 h); assay type: in vitro ADME, human; set-up: Percentage of Control Value at 0 h, A (2 h) / Percentage of Control Value at 0 h, B (2 h): concentration or dose not given beside the values; details: for Percentage of Digesta Value, A (2 h) / Percentage of Digesta Value, B (2 h): PRPE digesta 10% (v/v); for Percentage of Digesta Value, A (2 h) / Percentage of Control Value at 0 h, A (2 h): apical chamber after 2 h; for Percentage of Digesta Value, B (2 h) / Percentage of Control Value at 0 h, B (2 h): basolateral chamber after 2 h; for Percentage of Control Value at 0 h, A (2 h) / Percentage of Control Value at 0 h, B (2 h): control digesta
# [1] = test system: human intestinal microbial ecosystem (colonic microbiota); test: Simulated digestion of PRPE in the dynamic multi-reactor GI model, LC-MS phenolic profile of pooled colonic digesta; assay type: in vitro ADME; details: pooled digesta of three colonic vessels, 24 h; note: key: (+) present; (T) trace amount
# Excerpt: PRPE was subjected to in vitro digestion by the GI model as described previously in detail. Briefly, the model was composed of five double-jacketed vessels representing the stomach, the small intestine, the ascending colon, the transverse colon, and the descending colon. The model was fully computer controlled. The pH was automatically controlled by addition of 0.2 M HCl and 0.5 M NaOH solution upon a change in pH in the vessels to simulate the in vivo conditions in the different segments of the human gastrointestinal tract. The temperature was kept at 37 °C and anaerobic conditions were maintained in the fermentation vessels by flushing nitrogen gas for 20 min into the airspace every day. The experiment was started after a 2-week stabilization period in which fecal slurry, obtained from five healthy volunteers with no history of GI disease or antibiotic use in the previous six months, were inoculated into the last three vessels. After the 2-week stabilization period, 130 g PRPE was dissolved in the GI food mixture, which was composed of the following ingredients: arabinolactan, pectin, xylan, starch, glucose, yeast extracts, peptone, mucin, and cysteine powders—a composition previously developed by Molly et al. (1993). The GI food mixture was stored at 4 °C during the study. Samples were collected from all three colonic vessels before and 24 h after addition of PRPE to the GI digestion model. Each digestion was carried out in triplicate. Samples were centrifuged at 1000× g and stored at −80 °C for later analysis by liquid chromatography–mass spectrometry (LC-MS) and for the cell culture experiments.
# The samples that were collected from the last three colonic vessels of the gut model after 24 h digestion were pooled after each experiment and prepared according to the method described previously. The samples were centrifuged at 36,000× g, 4 °C for 2 h. The supernatant was collected and the pH was neutralized to pH 7 before being filter sterilized with a 25 mm syringe filter (0.2 µm, MCE, Fisher Scientific, Ottawa, ON, Canada) and stored at −80 °C until used for the Caco-2/HepG2 cell experiments. Samples collected before the addition of PRPE were considered as the controls.
# This condition was maintained for 3 min.
# HepG2 cells = test: HepG2 cell metabolism bioassay (basolateral chamber, further 3 h); details: for Fold increase of basolateral concentration after HepG2 incubation: 3 h with HepG2 cells, relative to initial basolateral value
# Protocol: Cells were incubated at 37 °C with 5% CO2 and 90% humidity and were monitored daily.
# During this time, the medium was changed every other day. Before starting the treatments, the integrity of the monolayer was checked by measuring the transepithelial electrical resistance (TEER). […] Caco-2 monolayers having reached a TEER of 250 ohm/cm^2 or greater were used for the transport experiment [29]. […] Medium (500 µL) containing digesta of PRPE was added to the apical side of the wells and incubated for up to 2 h. […] Samples were taken from the receiver well after 2 and 5 h. […] All samples were centrifuged at 2000× g for 15 min and the supernatants were stored at −20 °C for further analysis by LC-MS.
# After thawing, samples were vortexed and filtered using 25 mm syringe filters (0.45 µm, MCE, Fisher Scientific, Ottawa, ON, Canada) and transferred to HPLC vials for LC-MS analysis. […] Phenolic compounds and metabolites were eluted using a gradient of solvent A (10 mM formic acid, pH 3.5) and B (5 mM ammonium formate solution in 100% methanol), starting with 5% B, increasing to 30% B in 5 min, 70% B in 7 min, and 100% B at 9 min. This condition was maintained for 3 min. A solvent flow rate of 1.0 mL/min was used and 20 µL of sample was injected into the LC system. […] The analyses were performed in both positive and negative modes and the data was acquired over a mass range of m/z 100–1000. […] The data were acquired and processed using Agilent Mass Hunter software version B.04.00. […] The relative abundance of the compounds was calculated relative to the quantification of benzoic acid as the reference peak, as benzoic acid was present in all the cellular compartments at the same concentration at all time points.
# [2] = test system: Caco-2 and HT29-MTX cells; set-up: method as in PMID 18154874; details: 1-h co-culture of Caco-2 and HT29-MTX cells; cited from earlier work
# Caco-2 cell monolayer = test system: Caco-2 cell monolayer; set-up: method as in PMID 12784628; details: cited from earlier work
# [3] = PRPE digesta, basolateral chamber after 3 h with HepG2 cells alone (t = 5 h), relative to basolateral value at 2 h
# [4] = listed as 3-hydroxyphenylacetic acid
# [5] = control digesta, basolateral chamber after 3 h with HepG2 cells (t = 5 h)
Structure (SMILES),"Percentage of Digesta Value, A (2 h) (Caco-2 cells)","Percentage of Digesta Value, B (2 h) (Caco-2 cells)",Presence after human simulated intestinal digestion of PRPE [1],"Percentage of Basolateral Value, B (5 h) (HepG2 cells; [3])","Percentage of Control Value at 0 h, A (2 h) (Caco-2 cells)","Percentage of Control Value at 0 h, B (2 h) (Caco-2 cells)","Percentage of Basolateral Value, B (5 h) (HepG2 cells; [5])",Fold increase of basolateral concentration after HepG2 incubation (HepG2 cells; PRPE digesta),other results
O=C(O)c1cccc(O)c1 [3-Hydroxybenzoic acid],50%,5%,+,100%,,,,,"Percentage of Digesta Value, B (2 h) (Caco-2 cells; listed as 3-hydroxybenzoic acid): 3–5%; Percentage of Basolateral Value, B (5 h) (HepG2 cells; PRPE digesta, basolateral chamber after 3 h with HepG2 cells alone (t = 5 h), relative to basolateral value at 2 h, listed as 3-hydroxybenzoic acid): unchanged"
O=C(O)Cc1cccc(O)c1 [3-Hydroxyphenylacetic acid],70%,-,+,-,100%,-,-,,"Percentage of Digesta Value, A (2 h) (Caco-2 cells; [4]): 65–70%; Percentage of Digesta Value, B (2 h) (Caco-2 cells; [4]): not detected; also recorded: none of these three compounds were measurable"
"O=C(O)CCc1cccc(O)c1 [3-Hydroxyphenylpropionic acid, 3-(3-Hydroxyphenyl)propionic acid]",69%,4%,+,233%,90%,-,-,2.3 fold,"Percentage of Digesta Value, B (2 h) (Caco-2 cells; listed as 3-hydroxyphenylpropionic acid): 3–5%; Percentage of Basolateral Value, B (5 h) (HepG2 cells; PRPE digesta, basolateral chamber after 3 h with HepG2 cells alone (t = 5 h), relative to basolateral value at 2 h, listed as 3-hydroxyphenylpropionic acid): 160–370%"
O=C(O)c1ccccc1 [Benzoic acid],+,+,+,+,+,+,+,,
"O=C(O)C=Cc1ccccc1 [Cinnamic acid, 3-Phenylprop-2-enoic acid]",,,+,,,,,,
O=C(O)/C=C/c1ccc(O)cc1 [Coumaric acid],68%,3%,+,212%,,,,More than a two-fold increase,"Percentage of Digesta Value, B (2 h) (Caco-2 cells; listed as coumaric acid): 3–5%"
"O=C(O)CCc1ccc(O)c(O)c1 [Dihydrocaffeic acid, 3-(3′,4′-Dihydroxyphenyl)propionic acid]",67%,15%,+,338%,26%,26%,123%,three-fold increase,"Percentage of Digesta Value, B (2 h) (Caco-2 cells; listed as dihydrocaffeic acid): 10–15% and 10%; Percentage of Basolateral Value, B (5 h) (HepG2 cells; PRPE digesta, basolateral chamber after 3 h with HepG2 cells alone (t = 5 h), relative to basolateral value at 2 h, listed as dihydrocaffeic acid): 160–370%; Permeability across Caco-2 cells [2]: 0.5%"
"COc1cc(CCC(=O)O)ccc1O [Dihydroferulic acid, 3-(4-Hydroxy-3-methoxyphenyl)propionic acid]",78%,10%,+,78%,,,,,"Percentage of Digesta Value, B (2 h) (Caco-2 cells; listed as dihydroferulic acid): 10–15% and 15%"
"COc1cc(/C=C/C(=O)O)ccc1O [Ferulic acid, (E)-3-(4-Hydroxy-3-methoxy-phenyl)prop-2-enoic acid]",90%,11%,+,166%,,,,1.6 fold,"Percentage of Digesta Value, B (2 h) (Caco-2 cells; listed as ferulic acid): 10–15%; Percentage transported to the basolateral side of the Caco-2 cell monolayer (Caco-2 cell monolayer): 3.42%; Percentage of Basolateral Value, B (5 h) (HepG2 cells; PRPE digesta, basolateral chamber after 3 h with HepG2 cells alone (t = 5 h), relative to basolateral value at 2 h, listed as ferulic acid): 160–370%"
O=C(O)CCc1ccccc1 [Phenylpropanoic acid],65%,-,+,-,100%,-,-,,"Percentage of Digesta Value, A (2 h) (Caco-2 cells; listed as phenylpropanoic acid): 65–70%; Percentage of Digesta Value, B (2 h) (Caco-2 cells; listed as phenylpropanoic acid): not detected; also recorded: none of these three compounds were measurable"
"O=C(O)c1ccc(O)c(O)c1 [Protocatechuic acid, 3,4-Dihydroxybenzoic acid]",,,+,,,,,,
"C[C@@H]1O[C@@H](OC[C@H]2O[C@@H](Oc3c(-c4ccc(O)c(O)c4)oc4cc(O)cc(O)c4c3=O)[C@H](O)[C@@H](O)[C@@H]2O)[C@H](O)[C@H](O)[C@H]1O [Rutin, Quercetin-3-O-rutinoside]",,,+,,,,,,
"COc1cc(C(=O)O)ccc1O [Vanillic acid, 4-Hydroxy-3-methoxybenzoic acid]",,,+,,,,,,
